{"source": "patent US6448280B1", "about": "“Angiotensin II antagonists against disorders associated with impaired neuronal conduction velocity, especially diabetic neuropathy” (Zeneca Limited, priority 1992, dated 2002)", "type_in_all_cases": "in vivo", "key": {"[1]": {"system": "motor branches supplying the tibialis anterior muscle (sciatic nerve)", "experiment": "Motor nerve conduction velocity in streptozotocin-diabetic rats, sciatic branch to tibialis anterior", "settings": "streptozotocin-diabetic male rats; 50 mg/kg daily by gavage for one month, started after one month of diabetes; sciatic notch to knee", "protocol": "(§1) Using an analogous method to that described by Cameron et al in Quarterlty Journal of Experimental Physiology, 1989, 74, 917-926, mature male rats were divided into non-diabetic animals (normal control group) and animals rendered diabetic (by administration of streptozotocin (40-45 mg/kg in 20 mmol/l sodium citrate buffer, pH 4.5, i.p.). The diabetic animals were further divided into two groups. After one month, the motor nerve conduction velocities in one of the diabetic groups (diabetic control group 1) were measured in vivo between the sciatic notch and the knee for motor branches supplying the gastrocnemius and tibialis anterior muscles of the calf using the procedures described by Cameron et al (ibid) (further details of the procedures are given in Experimental Neurology, 1986, 92, 757-761). Sensory nerve conduction velocity was also measured for diabetic control group 1 in the saphenous nerve between the groin and ankle (again using the method of Cameron et al (ibid)). The remaining group of diabetic animals was further divided into two groups. One of these groups was given daily 2-ethyl-4-[(2′-(1H-1,2,3,4-tetrazol-5-yl)biphenyl-4-yl)methoxy]quinoline hydrochloride (Compound A; 50 mg/kg) by gavage, the other group remaining untreated (diabetic control group 2). […]"}, "[2]": {"system": "motor branches supplying the gastrocnemius muscle (sciatic nerve)", "experiment": "Motor nerve conduction velocity in streptozotocin-diabetic rats, sciatic branch to gastrocnemius", "settings": "streptozotocin-diabetic male rats; 50 mg/kg daily by gavage for one month, started after one month of diabetes; sciatic notch to knee", "protocol": "as §1"}, "[3]": {"system": "saphenous nerve", "experiment": "Sensory nerve conduction velocity in streptozotocin-diabetic rats, saphenous nerve", "settings": "streptozotocin-diabetic male rats; 50 mg/kg daily by gavage for one month, started after one month of diabetes; groin to ankle", "protocol": "as §1"}}}
{"smiles": "CCc1cc(OCc2ccc(-c3ccccc3-c3nnn[nH]3)cc2)c2ccccc2n1.Cl", "note": "[Compound A, 2-ethyl-4-[(2′-(1H-1,2,3,4-tetrazol-5-yl)biphenyl-4-yl)methoxy]quinoline hydrochloride]", "values": [{"measurement": "Motor NCV Tibialis Anterior", "setting": "[1]", "value": "60.3 ± 1.2", "unit": "m/s"}, {"measurement": "Motor NCV Gastrocnemius", "setting": "[2]", "value": "62.8 ± 0.9", "unit": "m/s"}, {"measurement": "Sensory NCV Saphenous", "setting": "[3]", "value": "60.2 ± 1.1", "unit": "m/s"}]}
